Results taken from publication PMC11542720, “Modelling of chromatographic and electrophoretic behaviour of imidazoline and alpha adrenergic receptors ligands under different acid-base conditions” (ADMET & DMPK, 2024).
Several values for one entry are separate records, joined by “and”; a condition that tells them apart may be missing. Identical values can stand only once. Counter-ions that a name gives are not always drawn. Like-named read-outs stand apart in the source and are kept apart here.

What was measured:
[1] = RP-HPLC retention on XTerra RP18, methanol/buffer; extrapolated retention factor log kw and slope S; assay type: physicochemical; settings: for log kw: intercept, extrapolated to 100 % buffer, methanol/buffer, 25 °C; for S (slope): slope of log k vs methanol volume fraction
Description: All measurements were performed at 25°C with a constant flow rate of 0.8 mL min^-1 and UV detection in the range of 200-280 nm. The injection volume was 20 μL. […] The retention factor k was calculated for each mobile phase composition according to Equation (1):
where tr is the retention time of the tested compound and t0 is the dead volume measured with KNO3 as a non-retentive marker. The values corresponding to 100 % of the buffered eluent (log kw) were determined by extrapolation according to Equation (2):
where log kw is the intercept, S is the slope of the regression line, and φ is the volume fraction of the organic modifier in the mobile phase.
The retention behaviour in HPLC system was monitored by calculating extrapolated retention factors log kw corresponding to pure buffer as mobile phase.

[2] = Capillary electrophoresis, effective electrophoretic mobility (acetone as EOF marker); assay type: physicochemical; settings: for µeff4.4 / μeff4.4 (effective electrophoretic mobility): pH 4.4; for µeff4.4 / µeff7.4 / µeff9.1: I = 25 mmol/L, 11 kV, 25 °C, three replicates; for µeff7.4 / μeff7.4 (effective electrophoretic mobility, text): pH 7.4; for µeff9.1 / μeff9.1 (effective electrophoretic mobility): pH 9.1
Description: All experiments were performed using the SpectraPhoresis 500-capillary electrophoresis system (Spectra Physics Analytical, USA) with UV detector. Data were recorded and analyzed using ChromQuest software version 4.0 (Thermo Finnigan, USA).
The separations were performed with an uncoated fused capillary (total length 31.5 cm, 50 μm id, effective length 24 cm, Polymicro Technologies, USA) applying a voltage of 11 kV and at 25 °C. The samples were injected hydrodynamically and detection was performed in the 200-280 nm range. The new capillary was rinsed stepwise with 0.1 M NaOH (15 min), water (10 min) and a running buffer (10 min). Finally, a 10 min high voltage was applied through the background electrolyte-filled capillary to equalize the inner surface, stabilize the electroosmotic flow and ensure good reproducibility of injections from run to run. […] Between runs, the capillary was rinsed with the background electrolyte for 1 minute.
where Lt is the total length of the capillary (cm), Leff is the effective length of the capillary (cm), U is the applied voltage (V), tm is the migration time of the analyte (s) and teof is the migration time of the electroneutral EOF marker acetone (s). The calculated μeff values (μeff4.4, μeff7.4 and μeff9.1) were used as dependent variables in QSMR analysis.

[3] = cited from earlier work
[4] = HPLC, ref 7 (Supplement reference list)

Compound	log kw ([1]; pH 4.4)	S (slope) ([1]; pH 4.4)	log kw ([1]; pH 7.4)	S (slope) ([1]; pH 7.4)	log kw ([1]; pH 9.1)	S (slope) ([1]; pH 9.1)	µeff4.4 [2]	µeff7.4 [2]	µeff9.1 [2]	pKa experimental ([3]; pH spectrophotometric, ref 13 (Supplement reference list))	pKa experimental ([3]; potentiometric, ref 12 (Supplement reference list))	μeff4.4 (effective electrophoretic mobility) [2]	pKa experimental [3, 4]	pKa experimental ([3]; spectrophotometric, ref 9 (Supplement reference list))	μeff7.4 (effective electrophoretic mobility, text) [2]	μeff9.1 (effective electrophoretic mobility) [2]	log kw ([1]; pH 4.4, listed as carvedilol)	μeff7.4 (effective electrophoretic mobility, text) ([2]; listed as clopamide)
c1ccc2c(CC3=NCCN3)cccc2c1 [Naphazoline, naphazoline hydrochloride]	1.52 ± 0.01	-3.48 ± 0.04	1.52 ± 0.01	-3.64 ± 0.05	1.76 ± 0.01	-3.50 ± 0.03	25.941 ± 0.038 10^-5 cm^2 V^-1 s^-1	24.180 ± 0.135 10^-5 cm^2 V^-1 s^-1	24.643 ± 0.049 10^-5 cm^2 V^-1 s^-1	10.81								
CCOc1ccccc1OCCN[C@H](C)Cc1ccc(OC)c(S(N)(=O)=O)c1 [Tamsulosin, tamsulosin hydrochloride]	2.22 ± 0.05	-4.73 ± 0.13	2.75 ± 0.04	-4.51 ± 0.10	3.06 ± 0.09	-4.97 ± 0.20	17.310 ± 0.002 10^-5 cm^2 V^-1 s^-1	14.444 ± 0.058 10^-5 cm^2 V^-1 s^-1	2.472 ± 0.133 10^-5 cm^2 V^-1 s^-1									
CN1CCN2c3ccccc3Cc3ccccc3C2C1 (centres unmarked) [Mianserin, mianserin hydrochloride]	2.48 ± 0.03	-4.24 ± 0.07	3.91 ± 0.05	-4.82 ± 0.08	3.92 ± 0.06	-4.83 ± 0.11	22.471 ± 0.004 10^-5 cm^2 V^-1 s^-1	12.234 ± 0.109 10^-5 cm^2 V^-1 s^-1	0.000 ± 0.000 10^-5 cm^2 V^-1 s^-1		7.40							
Cc1nccc2c1[nH]c1ccccc12 [Harman, harmane]	1.72 ± 0.06	-3.74 ± 0.18	2.76 ± 0.05	-3.70 ± 0.09	2.78 ± 0.06	-3.75 ± 0.11	28.192 ± 0.016 10^-5 cm^2 V^-1 s^-1	11.752 ± 0.034 10^-5 cm^2 V^-1 s^-1	0.000 ± 0.000 10^-5 cm^2 V^-1 s^-1			28.19 10^-5 cm^2 / V s	7.21					
Clc1cccc(Cl)c1N=C1NCCN1 [Clonidine, Clonidine hydrochloride]	0.82 ± 0.02	-2.74 ± 0.05	0.98 ± 0.01	-1.82 ± 0.02	1.47 ± 0.01	-2.71 ± 0.03	25.952 ± 0.084 10^-5 cm^2 V^-1 s^-1	19.607 ± 0.132 10^-5 cm^2 V^-1 s^-1	2.575 ± 0.060 10^-5 cm^2 V^-1 s^-1									
COc1ccc2c(c1)[nH]c1c(C)nccc12 [Harmine, harmine hydrochloride]	2.15 ± 0.04	-4.28 ± 0.11	2.88 ± 0.05	-3.85 ± 0.09	2.95 ± 0.07	-3.97 ± 0.12	26.410 ± 0.068 10^-5 cm^2 V^-1 s^-1	13.636 ± 0.051 10^-5 cm^2 V^-1 s^-1	1.305 ± 0.124 10^-5 cm^2 V^-1 s^-1					7.45 (spectrophotometric) [9]				
N=C(N)NC(=O)Cc1c(Cl)cccc1Cl [Guanfacine, guanfacine hydrochloride]	1.73 ± 0.01	-3.47 ± 0.03	1.92 ± 0.12	-3.21 ± 0.03	2.00 ± 0.00	-3.35 ± 0.01	24.242± 0.002 10^-5 cm^2 V^-1 s^-1	5.083 ± 0.025 10^-5 cm^2 V^-1 s^-1	0.000 ± 0.000 10^-5 cm^2 V^-1 s^-1						5.083 ± 0.025 10^-5 cm^2 / V s	zero		
CCC1(C2=NCCN2)Cc2ccccc2O1 (centres unmarked) [Efaroxan, efaroxan hydrochloride]	1.31 ± 0.02	-3.20 ± 0.04	1.33± 0.03	-3.10 ± 0.14	1.85 ± 0.01	-3.38 ± 0.03	24.099 ± 0.035 10^-5 cm^2 V^-1 s^-1	22.704 ± 0.075 10^-5 cm^2 V^-1 s^-1	16.361 ± 0.178 10^-5 cm^2 V^-1 s^-1				10.02					
N=C(N)NC(=O)c1nc(Cl)c(N)nc1N [Amiloride, Amiloride hydrochloride]	1.11 ± 0.04	-3.31 ± 0.09	1.05 ± 0.04	-3.23 ± 0.12	0.98 ± 0.04	-2.74 ± 0.11	25.939 ± 0.080 10^-5 cm^2 V^-1 s^-1	21.786 ± 0.082 10^-5 cm^2 V^-1 s^-1	6.416 ± 0.022 10^-5 cm^2 V^-1 s^-1									
Cc1cc(C(C)(C)C)cc(C)c1CC1=NCCN1 [Xylometazoline, xylometazoline hydrochloride]	2.61 ± 0.00	-4.22 ± 0.01	2.59 ± 0.02	-4.14 ± 0.04	2.79 ± 0.08	-4.17 ± 0.16	21.032 ± 0.019 10^-5 cm^2 V^-1 s^-1	19.943 ± 0.006 10^-5 cm^2 V^-1 s^-1	20.627 ± 0.015 10^-5 cm^2 V^-1 s^-1									
C1COC(NC(C2CC2)C2CC2)=N1 [Rilmenidine, rilmenidine hemifumarate]	0.92 ± 0.03	-2.88 ± 0.09	0.90 ± 0.03	-2.35 ± 0.11	1.48 ± 0.02	-2.96 ± 0.06	25.350 ± 0.121 10^-5 cm^2 V^-1 s^-1	22.551 ± 0.029 10^-5 cm^2 V^-1 s^-1	14.065 ± 0.214 10^-5 cm^2 V^-1 s^-1									
Clc1ccc2nsnc2c1NC1=NCCN1 [Tizanidine, tizanidine hydrochloride]	0.74 ± 0.02	-2.65 ± 0.06	1.12 ± 0.01	-2.23 ± 0.03	1.34 ± 0.01	-2.63 ± 0.04	24.770 ± 0.035 10^-5 cm^2 V^-1 s^-1	12.077 ± 0.042 10^-5 cm^2 V^-1 s^-1	0.000 ± 0.000 10^-5 cm^2 V^-1 s^-1							zero		
Cc1cc2c(s1)Nc1ccccc1N=C2N1CCN(C)CC1 [Olanzapine, olanzapine]	1.64 ± 0.04	-3.37 ± 0.11	3.23 ± 0.07	-4.37 ± 0.12	3.28 ± 0.08	-4.46 ± 0.14	33.632 ± 0.036 10^-5 cm^2 V^-1 s^-1	10.679 ± 0.039 10^-5 cm^2 V^-1 s^-1	1.241 ± 0.029 10^-5 cm^2 V^-1 s^-1			33.632 ± 0.036 10^-5 cm^2 / V s						
CN[C@@H](C)[C@H](O)c1ccccc1 [Ephedrine, ephedrine hydrochloride]	0.56 ± 0.02	-2.41 ± 0.08	0.57± 0.02	-2.49 ± 0.09	1.01 ± 0.02	-2.52 ± 0.05	25.942 ± 0.032 10^-5 cm^2 V^-1 s^-1	23.199 ± 0.103 10^-5 cm^2 V^-1 s^-1	18.047 ± 0.070 10^-5 cm^2 V^-1 s^-1									
CN[C@@H](C)[C@@H](O)c1ccccc1 [Pseudoephedrine, pseudoephedrine hydrochloride]	0.60 ± 0.03	-2.60 ± 0.10	0.61 ± 0.02	-2.67 ± 0.12	1.10 ± 0.02	-2.72 ± 0.07	26.633 ± 0.043 10^-5 cm^2 V^-1 s^-1	23.691 ± 0,051 10^-5 cm^2 V^-1 s^-1	9.299 ± 0.058 10^-5 cm^2 V^-1 s^-1									
COc1ccccc1OCCNCC(O)COc1cccc2[nH]c3ccccc3c12 (centres unmarked) [Carvedilol, carvedilol]	3.75 ± 0.04	-5.84 ± 0.07	4.15 ± 0.08	-5.44 ± 0.13	4.21 ± 0.10	-5.56 ± 0.18	18.061 ± 0.029 10^-5 cm^2 V^-1 s^-1	13.057 ± 0.052 10^-5 cm^2 V^-1 s^-1	1.693 ± 0.071 10^-5 cm^2 V^-1 s^-1								3.75	
CC1Cc2ccccc2N1NC(=O)c1ccc(Cl)c(S(N)(=O)=O)c1 (centres unmarked) [Indapamide, indapamide]	2.69 ± 0.02	-4.16 ± 0.06	2.55 ± 0.02	-4.19 ± 0.04	2.35 ± 0.03	-3.78 ± 0.06	0.000 ± 0.000 10^-5 cm^2 V^-1 s^-1	0.000 ± 0.000 10^-5 cm^2 V^-1 s^-1	-10.382 ± 0.053 10^-5 cm^2 V^-1 s^-1			0 10^-5 cm^2 / V s and 0.000 ± 0.000 10^-5 cm^2 / V s				negative values of effective mobility		
C[C@@H]1CCC[C@H](C)N1NC(=O)c1ccc(Cl)c(S(N)(=O)=O)c1 [Clopamide, clopamide]	2.00 ± 0.02	-3.61 ± 0.04	1.99 ± 0.03	-3.59 ± 0.08	1.87 ± 0.01	-3.34 ± 0.02	0.000 ± 0.000 10^-5 cm^2 V^-1 s^-1	0.000 ± 0.000 10^-5 cm^2 V^-1 s^-1	-9.640 ± 0.053 10^-5 cm^2 V^-1 s^-1			0 10^-5 cm^2 / V s and 0.000 ± 0.000 10^-5 cm^2 / V s			zero	negative values of effective mobility		0 10^-5 cm^2 / V s
